The structures appear in SMILES notation.

Experimental findings from patent US9617246B2, “Thioether-piperidinyl orexin receptor antagonists” (MERCK SHARP & DOHME CORP., priority 2013, dated 2017) are described below.

Experiment [1] addresses human orexin-2 receptor (Homo sapiens (Human), UniProt O43614). The experiment in a line: FLIPR Ca2+ Flux Assay, orexin-2 receptor. It counts as cell-based. The conditions noted are these: CHO cells, agonist 70 pM Ala-6,12 human orexin-A; read-out: hOX2R FLIPR IC50. How it is done: The utility of the compounds in accordance with the present invention as orexin receptor OX1R and/or OX2R antagonists may be readily determined without undue experimentation by methodology well known in the art, including the “FLIPR Ca^2+ Flux Assay” (Okumura et al., Biochem. Biophys. Res. Comm. 280:976-981, 2001). In a typical experiment the OX1 and OX2 receptor antagonistic activity of the compounds of the present invention was determined in accordance with the following experimental method. For intracellular calcium measurements, Chinese hamster ovary (CHO) cells expressing the rat orexin-1 receptor or the human orexin-2 receptor, are grown in Iscove's modified DMEM containing 2 mM L-glutamine, […], 1% hypoxanthine-thymidine supplement, 100 U/ml penicillin, 100 μg/ml streptomycin and 10% heat-inactivated fetal calf serum (FCS). The cells are seeded at 20,000 cells/well into Becton-Dickinson black 384-well clear bottom sterile plates coated with poly-D-lysine. All reagents were from GIBCO-Invitrogen Corp. The seeded plates are incubated overnight at 37° C. and 5% CO2. Ala-6,12 human orexin-A as the agonist is prepared as a 1 mM stock solution in 1% bovine serum albumin (BSA) and diluted in assay buffer (HBSS containing 20 mM HEPES, 0.1% BSA and 2.5 mM probenecid, pH7.4) for use in the assay at a final concentration of 70 pM. Test compounds are prepared as 10 mM stock solution in DMSO, then diluted in 384-well plates, first in DMSO, then assay buffer. On the day of the assay, cells are washed 3 times with 100 μl assay buffer and then incubated for 60 min (37° C., 5% CO2) in 60 μl assay buffer containing 1 μM Fluo-4AM ester, 0.02% pluronic acid, and 1% BSA. The dye loading solution is then aspirated and cells are washed 3 times with 100 μl assay buffer. 30 μl of that same buffer is left in each well. Within the Fluorescent Imaging Plate Reader (FLIPR, Molecular Devices), test compounds are added to the plate in a volume of 25 μl, incubated for 5 min and finally 25 μl of agonist is added. Fluorescence is measured for each well at 1 second intervals for 5 minutes and the height of each fluorescence peak is compared to the height of the fluorescence peak induced by 70 pM Ala-6,12 orexin-A with buffer in place of antagonist. For each antagonist, IC50 value (the concentration of compound needed to inhibit 50% of the agonist response) is determined. Alternatively, compound potency can be assessed by a radioligand binding assay (described in Bergman et. al. Bioorg. Med. Chem. Lett. 2008, 18, 1425-1430) in which the inhibition constant (Ki) is determined in membranes prepared from CHO cells expressing either the OX1 or OX2 receptor. The intrinsic orexin receptor antagonist activity of a compound which may be used in the present invention may be determined by these assays.
(A change in cytosolic calcium serves as a functional read-out for many receptors and channels.)

Experiment [2] deals with hOX1R (Homo sapiens, UniProt O43613). The experiment is described as follows: FLIPR Ca2+ Flux Assay, orexin-1 receptor. Type of experiment: cell-based. The conditions noted are these: CHO cells, agonist 70 pM Ala-6,12 human orexin-A.

Sequence of human orexin-2 receptor (O43614 whole entry): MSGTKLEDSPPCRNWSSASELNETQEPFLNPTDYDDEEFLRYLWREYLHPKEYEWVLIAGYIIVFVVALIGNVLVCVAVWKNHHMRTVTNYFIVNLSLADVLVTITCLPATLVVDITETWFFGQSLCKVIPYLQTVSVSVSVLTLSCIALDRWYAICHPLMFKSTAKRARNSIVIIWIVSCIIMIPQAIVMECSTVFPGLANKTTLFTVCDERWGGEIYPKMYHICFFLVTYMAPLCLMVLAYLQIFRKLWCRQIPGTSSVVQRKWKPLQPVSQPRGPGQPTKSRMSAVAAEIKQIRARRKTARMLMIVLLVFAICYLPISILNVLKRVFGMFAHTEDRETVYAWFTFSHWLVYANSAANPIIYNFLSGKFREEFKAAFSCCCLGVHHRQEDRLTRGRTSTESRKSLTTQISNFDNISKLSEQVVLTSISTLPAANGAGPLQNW

Broadly, the IC50 is the concentration needed to halve the response being measured. On to `COC(=O)c1cccnc1S[C@@H]1CC[C@@H](C)N(C(=O)c2ccccc2-n2nccn2)C1` [Example 3, methyl 2-{[(3R,6R)-6-methyl-1-{[2-(2H-1,2,3-triazol-2-yl)phenyl]carbonyl}piperidin-3-yl]sulfanyl}pyridine-3-carboxylate], for which the figures for the IC50 in experiment [1] and in experiment [2] were 23.9 nM and 48.1 nM, respectively.
As to `C[C@@H]1CC[C@@H](Sc2cc(C#N)ccn2)CN1C(=O)c1cc(Cl)ccc1-n1nccn1` [Example 25, 2-{[(3R,6R)-1-{[5-chloro-2-(2H-1,2,3-triazol-2-yl)phenyl]carbonyl}-6-methylpiperidin-3-yl]sulfanyl}pyridine-4-carbonitrile], the concentration for half-maximal inhibition (IC50) in experiment [1] is 214 nM; in experiment [2] it was 4860 nM.
For the molecule `Cc1ccnc(S[C@@H]2CC[C@@H](C)N(C(=O)c3ccccc3-n3nccn3)C2)c1` [Example 11, 4-methyl-2-{[(3R,6R)-6-methyl-1-{[2-(2H-1,2,3-triazol-2-yl)phenyl]carbonyl}piperidin-3-yl]sulfanyl}pyridine], the half-inhibitory concentration (IC50) in experiment [1] came to 20 nM; in experiment [2] it was 440 nM.
The like results for `C[C@@H]1CC[C@@H](Sc2cc(C#N)ccn2)CN1C(=O)c1cc(Br)ccc1-n1nccn1` [Example 24, 2-{[(3R,6R)-1-{[5-bromo-2-(2H-1,2,3-triazol-2-yl)phenyl]carbonyl}-6-methylpiperidin-3-yl]sulfanyl}pyridine-4-carbonitrile] were, in that order, 14.9 nM and 489 nM.
On to `COC(=O)c1ccnc(S[C@@H]2CC[C@@H](C)N(C(=O)c3ccccc3-n3nccn3)C2)c1` [Example 13, methyl 2-{[(3R,6R)-6-methyl-1-{[2-(2H-1,2,3-triazol-2-yl)phenyl]carbonyl}piperidin-3-yl]sulfanyl}pyridine-4-carboxylate], for which the IC50 in experiment [1] was found to be 297 nM; in experiment [2], 6310 nM.
The like results for `CC(C)Oc1ccccc1C(=O)N1C[C@H](Sc2cc(C#N)ccn2)CC[C@H]1C` [Example 33, 2-{[(3R,6R)-6-methyl-1-{[2-(1-methylethoxy)phenyl]carbonyl}piperidin-3-yl]sulfanyl}pyridine-4-carbonitrile] were, in that order, 29.4 nM and 6840 nM.
The matching figures for `C[C@@H]1CC[C@@H](Sc2ccccn2)CN1C(=O)c1ccccc1-n1nccn1` [Example 7, 2-{[(3R,6R)-6-methyl-1-{[2-(2H-1,2,3-triazol-2-yl)phenyl]carbonyl}piperidin-3-yl]sulfanyl}pyridine]: 179 nM and 1630 nM.
The matching figures for `C[C@@H]1CC[C@@H](Sc2cc(C#N)ccn2)CN1C(=O)c1ccccc1-n1nccn1` [Example 9, 2-{[(3R,6R)-6-methyl-1-{[2-(2H-1,2,3-triazol-2-yl)phenyl]carbonyl}piperidin-3-yl]sulfanyl}pyridine-4-carbonitrile]: 13.5 nM and 1410 nM.
`C[C@@H]1CC[C@@H](Sc2cc(C#N)ccn2)CN1C(=O)c1ccccc1-c1ccccc1` [Example 28, 2-{[(3R,6R)-1-(biphenyl-2-ylcarbonyl)-6-methylpiperidin-3-yl]sulfanyl}pyridine-4-carbonitrile]: the IC50 in experiment [1] stood at 16.7 nM; in experiment [2], 279 nM.
For `Cc1ccnc(S[C@@H]2CC[C@@H](C)N(C(=O)c3ccccc3-n3nccn3)C2)c1C#N` [Example 10, 4-methyl-2-{[(3R,6R)-6-methyl-1-{[2-(2H-1,2,3-triazol-2-yl)phenyl]carbonyl}piperidin-3-yl]sulfanyl}pyridine-3-carbonitrile], the figures for the IC50 in experiment [1] and in experiment [2] were 24.2 nM and 634 nM, respectively.
The matching figures for `C[C@@H]1CC[C@@H](Sc2cc(C#N)ccn2)CN1C(=O)c1cccc(F)c1-n1nccn1` [Example 19, 2-{[(3R,6R)-1-{[3-fluoro-2-(2H-1,2,3-triazol-2-yl)phenyl]carbonyl}-6-methylpiperidin-3-yl]sulfanyl}pyridine-4-carbonitrile]: 20.8 nM and 2550 nM.
`C[C@@H]1CC[C@@H](Sc2cc(C#N)ccn2)CN1C(=O)c1ccsc1-c1ncccn1` [Example 40, 2-({(3R,6R)-6-Methyl-1-[(2-pyrimidin-2-ylthiophen-3-yl)carbonyl]piperidin-3-yl}sulfanyl)pyridine-4-carbonitrile]: the IC50 is 19 nM in experiment [1] and 2240 nM in experiment [2].
The like results for `Cc1ccc(C(=O)N2C[C@H](Sc3cc(C#N)ccn3)CC[C@H]2C)c(-n2nccn2)c1` [Example 22, 2-{[(3R,6R)-6-methyl-1-{[4-methyl-2-(2H-1,2,3-triazol-2-yl)phenyl]carbonyl}piperidin-3-yl]sulfanyl}pyridine-4-carbonitrile] were, in that order, 49 nM and 1500 nM.
Consider `COC(=O)c1c(OC)ccnc1S[C@@H]1CC[C@@H](C)N(C(=O)c2ccccc2-n2nccn2)C1` [Example 49, Methyl 4-methoxy-2-{[(3R,6R)-6-methyl-1-{[2-(2H-1,2,3-triazol-2-yl)phenyl]carbonyl}piperidin-3-yl]sulfanyl}pyridine-3-carboxylate], for which the values for the half-inhibitory concentration (IC50) in experiment [1] and in experiment [2] were 11.1 nM and 73.2 nM, respectively.
For `C[C@@H]1CC[C@@H](Sc2cc(C#N)ccn2)CN1C(=O)c1ccccc1-c1ncccn1` [Example 41, 2-({(3R,6R)-6-methyl-1-[(2-pyrimidin-2-ylphenyl)carbonyl]piperidin-3-yl}sulfanyl)pyridine-4-carbonitrile], the IC50 in experiment [1] amounted to 18.9 nM; in experiment [2], 1580 nM.
The like results for `CSc1ccccc1C(=O)N1C[C@H](Sc2cc(C#N)ccn2)CC[C@H]1C` [Example 34, 2-{[(3R,6R)-6-methyl-1-{[2-(methylsulfanyl)phenyl]carbonyl}piperidin-3-yl]sulfanyl}pyridine-4-carbonitrile] were, in that order, 75.4 nM and 8720 nM.
The matching figures for `C[C@@H]1CC[C@@H](Sc2cc(C#N)ccn2)CN1C(=O)c1c(F)cccc1-n1nccn1` [Example 16, 2-{[(3R,6R)-1-{[2-fluoro-6-(2H-1,2,3-triazol-2-yl)phenyl]carbonyl}-6-methylpiperidin-3-yl]sulfanyl}pyridine-4-carbonitrile]: 51.4 nM and 2350 nM.
With `C[C@@H]1CC[C@@H](Sc2ncccc2C(=O)O)CN1C(=O)c1ccccc1-n1nccn1` [Example 48, 2-{[(3R,6R)-6-Methyl-1-{[2-(2H-1,2,3-triazol-2-yl)phenyl]carbonyl}piperidin-3-yl]sulfanyl}pyridine-3-carboxylic acid], the IC50 amounted to 626 nM in experiment [1] and 6540 nM in experiment [2].
The matching figures for `C[C@@H]1CC[C@@H](Sc2cc(C#N)ccn2)CN1C(=O)c1ccccc1C1CCCCO1` (stereo partly drawn) [Example 38, 2-{[(3R,6R)-6-methyl-1-{[2-(tetrahydro-2H-pyran-2-yl)phenyl]carbonyl}piperidin-3-yl]sulfanyl}pyridine-4-carbonitrile]: 36.6 nM and 10000 nM.
The matching figures for `Cc1cccc(C(=O)N2C[C@H](Sc3cc(C#N)ccn3)CC[C@H]2C)c1-n1nccn1` [Example 18, 2-{[(3R,6R)-6-methyl-1-{[3-methyl-2-(2H-1,2,3-triazol-2-yl)phenyl]carbonyl}piperidin-3-yl]sulfanyl}pyridine-4-carbonitrile]: 14.4 nM and 803 nM.
The like results for `C[C@@H]1CC[C@@H](Sc2cc(C#N)ccn2)CN1C(=O)c1ccccc1Oc1ccccc1` [Example 29, 2-({(3R,6R)-6-methyl-1-[(2-phenoxyphenyl)carbonyl]piperidin-3-yl}sulfanyl)pyridine-4-carbonitrile] were, in that order, 62.7 nM and 10000 nM.
Consider `COC(=O)c1c(I)ccnc1S[C@@H]1CC[C@@H](C)N(C(=O)c2ccccc2-n2nccn2)C1` [Example 4, methyl 4-iodo-2-{[(3R,6R)-6-methyl-1-{[2-(2H-1,2,3-triazol-2-yl)phenyl]carbonyl}piperidin-3-yl]sulfanyl}pyridine-3-carboxylate], for which the concentration for half-maximal inhibition (IC50) in experiment [1] is 23.6 nM; in experiment [2], 54.4 nM.
